Measured values taken from patent US5877019A, “Animal 2-5A-dependent RNases and encoding sequences therefor” (Cleveland Clinic Foundation, priority 1996, dated 1999).
Entries after “also recorded” stand apart in the source; their conditions may differ. Blank lines part the entries; values can stand above or below the molecule they belong to.

How the values were obtained:
[1] = test system: human 2-5A-dependent RNase; conditions: purified enzyme, poly(rU) substrate; for concentration giving maximal activation of 2-5A-dependent RNase: 30 minutes 30° C.
2-5A-dependent RNase [2] = molecular target: T1, 2-5A-dependent RNase (Homo sapiens, UniProt Q05823); experiment: Divalent cation and ATP effects on 2-5A binding activity of dialyzed enzyme; conditions: EDTA/EGTA buffer
T1 sequence (Q05823 1-741): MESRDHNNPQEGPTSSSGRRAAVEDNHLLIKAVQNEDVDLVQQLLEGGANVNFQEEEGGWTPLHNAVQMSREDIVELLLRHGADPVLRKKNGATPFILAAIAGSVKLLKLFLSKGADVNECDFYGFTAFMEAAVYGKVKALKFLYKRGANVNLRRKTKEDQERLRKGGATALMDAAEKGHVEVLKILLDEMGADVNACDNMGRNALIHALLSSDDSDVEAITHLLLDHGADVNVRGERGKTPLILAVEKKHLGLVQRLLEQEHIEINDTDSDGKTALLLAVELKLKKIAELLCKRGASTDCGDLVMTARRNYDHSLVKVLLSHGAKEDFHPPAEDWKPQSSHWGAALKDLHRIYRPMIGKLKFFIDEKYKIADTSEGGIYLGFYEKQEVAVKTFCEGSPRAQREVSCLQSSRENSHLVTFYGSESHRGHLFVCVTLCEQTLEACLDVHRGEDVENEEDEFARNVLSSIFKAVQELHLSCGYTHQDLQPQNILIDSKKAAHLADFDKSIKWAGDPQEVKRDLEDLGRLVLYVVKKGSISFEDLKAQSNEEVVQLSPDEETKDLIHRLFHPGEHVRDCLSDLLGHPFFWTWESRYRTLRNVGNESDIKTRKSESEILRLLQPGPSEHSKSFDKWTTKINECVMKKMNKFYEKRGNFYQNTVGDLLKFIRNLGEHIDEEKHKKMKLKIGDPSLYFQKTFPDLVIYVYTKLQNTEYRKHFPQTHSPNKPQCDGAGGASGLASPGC
Experimental: (§1) The divalent cation requirements of 2-5A-dependent RNase were determined after extensive dialysis against buffer containing both EDTA and EGTA. More particularly, purified 2-5A-dependent RNase (about 100 μg in 100 μl), post-mono Q column fraction, was dialyzed at 4° C. against 25 mM Tris-HCl (pH 7.4), 2.5 mM EDTA, 2.5 mM EGTA, 14 mM 2-mercaptoethanol, and 100 mM KCl (first against 400 ml for four hours, then against 600 ml for ten hours, and finally against 200 ml of reaction buffer (EDTA and EGTA were reduced to 0.5 mM) for another four hours.
(§2) Activity assays were also performed in the presence of EDTA/EGTA to ensure the chelation of metal ions present in the reagents. […] For the filter binding assay, a ^32 P-labeled and bromine substituted 2-5A analog, p(A2'p)2 (br^8 A2'p)2 A3'-32P]Cp, 10,000 counts per minute per assay, at about 3,000 Ci per mmole, was incubated with fractions containing 2-5A-dependent RNase (or controls) at 4° C. for one hour.

2-5A-dependent RNase [3] = molecular target: T1, 2-5A-dependent RNase; experiment: Divalent cation and ATP effects on 2-5A-dependent RNase activity of dialyzed enzyme; format: biochemical; conditions: EDTA/EGTA buffer
Experimental: as §1, §2

[4] = test system: human 2-5A-dependent RNase; experiment: UV covalent crosslinking of 2-5A probe in presence of competitors; format: binding; conditions: competitor 100 nM; recombinant human enzyme in wheat germ extract; same pattern in HeLa cell extract
Experimental: FIG. 5A is specific affinity of recombinant human 2-5A-dependent RNase for 2-5A. Crosslinking of the 2-5A probe (lanes 1-7) to protein is performed after translation reactions in wheat germ extract (5 μl) with human 2-5A-dependent RNase mRNA (lanes 1-3) or without added RNA (lane 4) or in extract of human interferon α treated (1000 units per ml for 16 h) human HeLa cells (350 μg of protein) (lanes 5-7). […] Incubations with ^35 S-methionine are shown in lanes 8 to 12. Lane 8 is with wheat germ extract and human 2-5A-dependent RNase mRNA. Reticulocyte lysate preadsorbed to 2-5A-cellulose is incubated with human 2-5A-dependent RNase mRNA in the absence (lane 9) or presence (lane 10) of cycloheximide, or in the absence of added mRNA (lane 11). […] The positions and relative molecular masses (in kDa) of the marker proteins are indicated.
The synthesis of the 2-5A probe, p(A2'p)2 (br^8 A2'p)2 A[32P]Cp, and its crosslinking to 2-5A-dependent RNase is performed exactly as described. See Nolan-Sorden, N. L. et al., Anal. Biochem., 184:298-304 (1990). Briefly, the 2-5A probe, about 0.7 to 2.5 nM at […], is incubated for about one hour on ice with cell extract prepared as described, Silverman, R. H. and Krause, D., I.R.L. Press, Oxford. England, pp. 149-193 (1987), in the absence or presence of unlabeled oligonucleotide competitors. […]

[5] = test system: murine 2-5A-dependent RNase; experiment: UV covalent crosslinking of 32P-2-5A probe in presence of unlabeled oligonucleotide competitors; format: binding; conditions: for competition with binding of the 2-5A probe: competitor 100 nM, recombinant 74 kDa protein (clone ZB1) in wheat germ extract, similar profile for L929 cell enzyme; for concentration of competitor that prevents 2-5A probe binding: probe 2.4 nM, both truncated recombinant (ZB1) and naturally occurring L cell protein
Experimental: FIG. 2A is a specific affinity of truncated murine 2-5A-dependent RNase for 2-5A. UV covalent crosslinking of the ^32 P-2-5A probe (lanes 1-7) to protein is performed after translation reactions in wheat germ extract (5 μl) with murine 2-5A-dependent RNase mRNA (from clone ZB1) (lanes 1-3) or without added RNA (lane 4) or in extract of interferon treated mouse L cells (100 μg of protein) (lanes 5-7). Reactions are without added competitor (lanes 1, 4, and 5) or in the presence of either trimer core. […] Lanes 8 and 9 are produced by incubating the wheat germ extract with ^35 S-methionine in the absence or presence of 2-5A-dependent RNase mRNA, respectively.
Autoradiograms of the dried SDS/10% polyacrylamide gels are shown. Concentrations of the oligonucleotide competitors are indicated. I is inosine.
The synthesis of the 2-5A probe, p(A2'p)2 (br^8 A2'p)2 A[32P]Cp, and its crosslinking to 2-5A-dependent RNase is performed exactly as described. See Nolan-Sorden, N. L. et al., Anal. Biochem., 184:298-304 (1990). Briefly, the 2-5A probe, about 0.7 to 2.5 nM at […], is incubated for about one hour on ice with cell extract prepared as described, Silverman, R. H. and Krause, D., I.R.L. Press, Oxford. England, pp. 149-193 (1987), in the absence or presence of unlabeled oligonucleotide competitors. Covalent crosslinking is done under a uv lamp (308 nm) for one hour on ice and the proteins are separated on SDS/10% polyacrylamide gels. Filter assays for 2-5A binding activity using the 2-5A probe for about one hour on ice, as described in Knight, M. et al., Nature, 288:189-192 (1980).

[6] = test system: human recombinant 2-5A-dependent RNase; experiment: 2-5A-dependent ribonuclease assay, crude extract of recombinant baculovirus-infected insect cells, poly(rU) degradation; conditions: activator at 100 nM, thirty minutes
2-5A probe = experiment: 2-5A binding activity of nested 3'-deletion clones (filter binding and uv crosslinking); conditions: protein expressed in wheat germ extract
Source text: See Example and Knight et al. (1980). The positions of the P-loop motifs and the lengths of the translation products are indicated. Clone ZB1 encodes for amino acids designated as 1-656 in Table II, except for the last 5 amino acid residues which are Lys, Pro, Leu, Ser, and Gly. Clone ZB2 encodes for amino acids designated as 1-619 in Table II. Clone ZB3 encodes for amino acids designated as 1-515 in Table II. Clone ZB5 encodes for amino acids designated as 1-474 in Table II. Clone ZB9 encodes for amino acids designated as 1-403 in Table II. Clone ZB10 encodes for amino acids designated as 1-365 in Table II. Clone ZB13 encodes for amino acids designated as 1-294 in Table II. Clone ZB14 encodes for amino acids designated as 1-265 in Table II. Clone ZB15 encodes for amino acids designated as 1-218 in Table II.
To further define sequences involved in 2-5A binding, nested 3'-deletions of the murine 2-5A-dependent RNase cDNA, clone ZB1, are constructed, transcribed in vitro, and expressed in a wheat germ extract. […] The levels of 2-5A binding activity are determined with the 2-5A probe in both a filter binding assay, Knight, M. et al., Nature, 288:189-192 (1980), and the uv crosslinking assay, Nolan-Sorden, N. L. et al., Anal. Biochem., 184:298-304 (1990), with similar results. Expression of clone ZB11, encoding amino acid residues 1 to 342, results in a loss of only about 26% of the 2-5A binding activity as compared to clone ZB1 (amino acids 1 to 656). Clones intermediate in length between ZB1 and ZB11 all result in significant levels of 2-5A binding activity. […] See also Saraste, M. et al., TIBS, 14:430-434 (1990).
The set of nested 3'-deletions of the truncated murine 2-5A-dependent RNase cDNA, ZB1, is generated with exonuclease III/S1 nuclease digestion followed by filling-in with Klenow DNA Polymerase using the "Erase-A-Base"system (Promega).
The synthesis of the 2-5A probe, p(A2'p)2 (br^8 A2'p)2 A[32P]Cp, and its crosslinking to 2-5A-dependent RNase is performed exactly as described. See Nolan-Sorden, N. L. et al., Anal. Biochem., 184:298-304 (1990). […]

Molecule: pppA(2'p5'A)3
concentration giving maximal activation of 2-5A-dependent RNase [1]: 1 nM

Molecule: A(2'p5'A)3
activation of 2-5A-dependent RNase (in words) [1]: enhanced activity

Molecule: [Mg+2] [magnesium]
effect on 2-5A-binding activity (2-5A-dependent RNase [2]): greatly stimulated
effect on 2-5A-dependent RNase activity (2-5A-dependent RNase [3]): greatly stimulated

Molecule: p3 (A2'p)2 A
RNA (poly(rU)) degraded [6]: 93%
competition with binding of the 2-5A probe [4]: effectively competes
competition with binding of the 2-5A probe [5]: completely prevents probe binding
concentration of competitor that prevents 2-5A probe binding [5]: about 20 nM
concentration giving maximal activation of 2-5A-dependent RNase [1]: 1 nM

Molecule: pA(2'p5'A)3
concentration giving maximal activation of 2-5A-dependent RNase [1]: 1 nM

B2: clone ZB13: murine 2-5A-dependent RNase deletion, amino acids 1 to 294 (protein, UniProt Q05921 1-294, looked up, fragment)
chain: METPDYNTPQGGTPSAGSQRTVVEDDSSLIKAVQKGDVVRVQQLLEKGADANACEDTWGWTPLHNAVQAGRVDIVNLLLSHGADPHRRKKNGATPFIIAGIQGDVKLLEILLSCGADVNECDENGFTAFMEAAERGNAEALRFLFAKGANVNLRRQTTKDKRRLKQGGATALMSAAEKGHLEVLRILLNDMKAEVDARDNMGRNALIRTLLNWDCENVEEITSILIQHGADVNVRGERGKTPLIAAVERKHTGLVQMLLSREGINIDARDNEGKTALLIAVDKQLKEIVQLLLE
2-5A binding activity, % of the activity of clone ZB1 (2-5A probe): about 38.3%

More lines, main results first:

effect on 2-5A-binding activity (2-5A-dependent RNase [2]): enhanced
effect on 2-5A-dependent RNase activity (2-5A-dependent RNase [3]): inhibitory
Molecule: [Zn+2] [zinc]

effect on 2-5A-binding activity (2-5A-dependent RNase [2]): enhanced
Molecule: [Ca+2] [calcium]
effect on 2-5A-dependent RNase activity (2-5A-dependent RNase [3]): no effect; also recorded: did not enhance ribonuclease activity

competition with binding of the 2-5A probe [4]: not prevented
fold higher concentration than trimer 2-5A required to prevent probe binding ([5]; both proteins): 500 fold
competition with binding of the 2-5A probe [5]: fails to interfere
concentration of competitor that prevents 2-5A probe binding [5]: 10 µM
fold reduced activity as activator relative to 2-5A (5'-triphosphorylated trimer) [1]: more than 100 fold
Molecule: (A2'p)2 A

concentration of competitor that prevents 2-5A probe binding [5]: about 1.0 μM
activation of 2-5A-dependent RNase (in words) [1]: more than ten-fold less effective
fold reduced activity as activator relative to 2-5A (5'-triphosphorylated trimer) [1]: 10 fold
Molecule: p3 I2'pA2'pA

effect on 2-5A-binding activity (2-5A-dependent RNase [2]): greatly stimulated
effect on 2-5A-dependent RNase activity (2-5A-dependent RNase [3]): greatly stimulated
Molecule: [Mn+2] [manganese]

activation of 2-5A-dependent RNase (in words) [1]: enhanced activity
Molecule: A(2'p5'A)4

2-5A binding activity, % of the activity of clone ZB1 (2-5A probe): completely lacking
B1: clone ZB15: murine 2-5A-dependent RNase deletion, amino acids 1 to 218, both P-loop motifs deleted (protein, UniProt Q05921 1-218, looked up, fragment)
chain: METPDYNTPQGGTPSAGSQRTVVEDDSSLIKAVQKGDVVRVQQLLEKGADANACEDTWGWTPLHNAVQAGRVDIVNLLLSHGADPHRRKKNGATPFIIAGIQGDVKLLEILLSCGADVNECDENGFTAFMEAAERGNAEALRFLFAKGANVNLRRQTTKDKRRLKQGGATALMSAAEKGHLEVLRILLNDMKAEVDARDNMGRNALIRTLLNWDCENV

loss of 2-5A binding activity as compared to clone ZB1 (2-5A probe): about 26%
B3: clone ZB11: murine 2-5A-dependent RNase deletion, amino acid residues 1 to 342 (protein, UniProt Q05921 1-342, looked up, fragment)
chain: METPDYNTPQGGTPSAGSQRTVVEDDSSLIKAVQKGDVVRVQQLLEKGADANACEDTWGWTPLHNAVQAGRVDIVNLLLSHGADPHRRKKNGATPFIIAGIQGDVKLLEILLSCGADVNECDENGFTAFMEAAERGNAEALRFLFAKGANVNLRRQTTKDKRRLKQGGATALMSAAEKGHLEVLRILLNDMKAEVDARDNMGRNALIRTLLNWDCENVEEITSILIQHGADVNVRGERGKTPLIAAVERKHTGLVQMLLSREGINIDARDNEGKTALLIAVDKQLKEIVQLLLEKGADKCDDLVWIARRNHDYHLVKLLLPYVANPDTDPPAGDWSPHSSRW
